# Test results published in ChEMBL document CHEMBL1154345, “Discovery of tricyclic 5,6-dihydro-1H-pyridin-2-ones as novel, potent, and orally bioavailable inhibitors of HCV NS5B polymerase” (Bioorg Med Chem Lett, 2009).
# How the values were obtained:
# Hepatitis C virus [1] = assay: microbe, parasite or virus in culture; type: functional, organism-based, Hepacivirus hominis, genotype 1b, Huh-luc/neo-ET; details: Hepatitis C virus, genotype 1b, Huh-luc/neo-ET, 72 h
# Description: Antiviral activity against HCV-1b infected human Huh-luc/neo-ET replicon cells after 72 hrs by luciferase based replicon assay
# in vitro [2] = details: human, t1/2
# in vitro [3] = details: human
# Description: Metabolic stability in human liver microsomes assessed as compound remaining after 60 mins at 1 uM
# Hepatitis C virus [4] = assay: microbe, parasite or virus in culture; type: functional, organism-based, Hepacivirus hominis, subtype 1a, Huh-lunet; details: Hepatitis C virus, subtype 1a, Huh-lunet, 96 h
# Description: Antiviral activity against HCV-1a infected in human Huh-lunet cells after 4 days by luciferase based replicon assay
SMILES,EC50 (Hepatitis C virus [1]) [µM],half-life at 1 µM (in vitro [2]; liver microsomes) [min],also measured
Cc1ccc(CN2C(=O)C(C3=NS(=O)(=O)c4cc(NS(C)(=O)=O)ccc4N3)=C(O)[C@@H]3C4CCC(CC4)[C@@H]32)cc1F,0.24,–,–
CS(=O)(=O)Nc1ccc2c(c1)S(=O)(=O)N=C(C1=C(O)[C@@H]3C4CCC(CC4)[C@@H]3N(Cc3cc(F)ccc3F)C1=O)N2,0.22,–,–
CS(=O)(=O)Nc1ccc2c(c1)S(=O)(=O)N=C(C1=C(O)[C@@H]3C4CCC(CC4)[C@@H]3N(Cc3cccc(C(F)(F)F)c3)C1=O)N2,0.39,–,–
CS(=O)(=O)Nc1ccc2c(c1)S(=O)(=O)N=C(C1=C(O)[C@@H]3C4CCC(CC4)[C@@H]3N(Cc3ccc(C(F)(F)F)cc3)C1=O)N2,1.1,–,–
Cc1ccc(CN2C(=O)C(C3=NS(=O)(=O)c4cc(NS(C)(=O)=O)ccc4N3)=C(O)[C@@H]3[C@@H]4CC[C@@H](C4)[C@@H]32)cc1F,1.7,–,–
CS(=O)(=O)Nc1ccc2c(c1)S(=O)(=O)N=C(C1=C(O)[C@@H]3[C@@H]4CC[C@@H](C4)[C@@H]3N(Cc3ccc(F)cc3Cl)C1=O)N2,0.14,–,–
CS(=O)(=O)Nc1ccc2c(c1)S(=O)(=O)N=C(C1=C(O)[C@@H]3[C@@H]4CC[C@@H](C4)[C@@H]3N(Cc3cc(Cl)ccc3F)C1=O)N2,0.3,–,–
CS(=O)(=O)Nc1ccc2c(c1)S(=O)(=O)N=C(C1=C(O)[C@@H]3[C@@H]4CC[C@@H](C4)[C@@H]3N(Cc3cc(F)ccc3F)C1=O)N2,0.26,–,–
CS(=O)(=O)Nc1ccc2c(c1)S(=O)(=O)N=C(C1=C(O)[C@@H]3[C@@H]4CC[C@@H](C4)[C@@H]3N(Cc3cccc(C(F)(F)F)c3)C1=O)N2,0.94,–,–
CS(=O)(=O)Nc1ccc2c(c1)S(=O)(=O)N=C(C1=C(O)[C@@H]3[C@@H]4CC[C@@H](C4)[C@@H]3N(Cc3ccc(C(F)(F)F)cc3)C1=O)N2,> 3.3,–,–
Cc1ccc(CN2C(=O)C(C3=NS(=O)(=O)c4cc(NS(C)(=O)=O)ccc4N3)=C(O)[C@@H]3[C@H]4CC[C@H](C4)[C@@H]32)cc1F,0.77,> 60,"remaining at 1 h, 1 µM (in vitro [3]; liver microsomes): 78%"
CS(=O)(=O)Nc1ccc2c(c1)S(=O)(=O)N=C(C1=C(O)[C@@H]3[C@H]4CC[C@H](C4)[C@@H]3N(Cc3cc(Cl)ccc3F)C1=O)N2,0.25,–,–
CS(=O)(=O)Nc1ccc2c(c1)S(=O)(=O)N=C(C1=C(O)[C@@H]3[C@H]4CC[C@H](C4)[C@@H]3N(Cc3cc(F)ccc3F)C1=O)N2,0.26,–,–
CS(=O)(=O)Nc1ccc2c(c1)S(=O)(=O)N=C(C1=C(O)[C@@H]3[C@H]4CC[C@H](C4)[C@@H]3N(Cc3cccc(C(F)(F)F)c3)C1=O)N2,0.82,–,–
CS(=O)(=O)Nc1ccc2c(c1)S(=O)(=O)N=C(C1=C(O)[C@@H]3[C@H]4CC[C@H](C4)[C@@H]3N(Cc3ccc(C(F)(F)F)cc3)C1=O)N2,> 3.3,–,–
CS(=O)(=O)Nc1ccc2c(c1)S(=O)(=O)N=C(C1=C(O)[C@@H]3[C@H]4CC[C@H](C4)[C@@H]3N(Cc3ccco3)C1=O)N2,0.25,–,–
CS(=O)(=O)Nc1ccc2c(c1)S(=O)(=O)N=C(C1=C(O)[C@@H]3C4CCC(CC4)[C@@H]3N(Cc3nccs3)C1=O)N2,3.3,–,–
CS(=O)(=O)Nc1ccc2c(c1)S(=O)(=O)N=C(C1=C(O)[C@@H]3[C@H]4CC[C@H](C4)[C@@H]3N(Cc3nccs3)C1=O)N2,> 1,–,–
CS(=O)(=O)Nc1ccc2c(c1)S(=O)(=O)N=C(C1=C(O)[C@@H]3[C@@H]4CC[C@@H](C4)[C@@H]3N(Cc3nccs3)C1=O)N2,> 1,–,–
CS(=O)(=O)Nc1ccc2c(c1)S(=O)(=O)N=C(C1=C(O)[C@@H]3[C@@H]4CC[C@@H](C4)[C@@H]3N(CC3CCCC3)C1=O)N2,0.16,–,half-life at 1 µM (in vitro [2]; microsomes): 17 min
CS(=O)(=O)Nc1ccc2c(c1)S(=O)(=O)N=C(C1=C(O)[C@@H]3[C@@H]4CC[C@@H](C4)[C@@H]3N(Cc3ccco3)C1=O)N2,0.17,–,–

# These reach a lower EC50 (Hepatitis C virus [1]). Values come first.
EC50 (Hepatitis C virus [1]) [µM],half-life at 1 µM (in vitro [2]; liver microsomes) [min],SMILES,also measured
0.13,–,CS(=O)(=O)Nc1ccc2c(c1)S(=O)(=O)N=C(C1=C(O)[C@@H]3[C@@H]4CC[C@@H](C4)[C@@H]3N(Cc3ccccc3Cl)C1=O)N2,–
0.13,–,CS(=O)(=O)Nc1ccc2c(c1)S(=O)(=O)N=C(C1=C(O)[C@@H]3[C@H]4CC[C@H](C4)[C@@H]3N(Cc3cccc(F)c3F)C1=O)N2,–
0.1,–,CS(=O)(=O)Nc1ccc2c(c1)S(=O)(=O)N=C(C1=C(O)[C@@H]3[C@@H]4CC[C@@H](C4)[C@@H]3N(Cc3cccc(F)c3F)C1=O)N2,–
0.09,> 60,CS(=O)(=O)Nc1ccc2c(c1)S(=O)(=O)N=C(C1=C(O)[C@@H]3[C@H]4CC[C@H](C4)[C@@H]3N(Cc3ccccc3Cl)C1=O)N2,"remaining at 1 h, 1 µM (in vitro [3]; liver microsomes): 100%"
0.089,18,CC(C)CCN1C(=O)C(C2=NS(=O)(=O)c3cc(NS(C)(=O)=O)ccc3N2)=C(O)[C@@H]2[C@@H]3CC[C@@H](C3)[C@@H]21,–
0.082,> 60,CS(=O)(=O)Nc1ccc2c(c1)S(=O)(=O)N=C(C1=C(O)[C@@H]3C4CCC(CC4)[C@@H]3N(Cc3cccc(F)c3F)C1=O)N2,"remaining at 1 h, 1 µM (in vitro [3]; liver microsomes): 75%"
0.08,> 60,CS(=O)(=O)Nc1ccc2c(c1)S(=O)(=O)N=C(C1=C(O)[C@@H]3C4CCC(CC4)[C@@H]3N(Cc3cc(Cl)ccc3F)C1=O)N2,"remaining at 1 h, 1 µM (in vitro [3]; liver microsomes): 100%"
0.08,> 60,CS(=O)(=O)Nc1ccc2c(c1)S(=O)(=O)N=C(C1=C(O)[C@@H]3C4CCC(CC4)[C@@H]3N(Cc3ccco3)C1=O)N2,"remaining at 1 h, 1 µM (in vitro [3]; liver microsomes): 96%"
0.073,–,CS(=O)(=O)Nc1ccc2c(c1)S(=O)(=O)N=C(C1=C(O)[C@@H]3[C@@H]4CC[C@@H](C4)[C@@H]3N(Cc3ccc(Cl)cc3)C1=O)N2,"half-life at 1 µM (in vitro [2]; microsomes): > 60 min; remaining at 1 h, 1 µM (in vitro [3]; microsomes): 100%"
0.072,–,CS(=O)(=O)Nc1ccc2c(c1)S(=O)(=O)N=C(C1=C(O)[C@@H]3[C@H]4CC[C@H](C4)[C@@H]3N(CC3CCCC3)C1=O)N2,half-life at 1 µM (in vitro [2]; microsomes): 46 min
0.07,> 60,COc1cccc(CN2C(=O)C(C3=NS(=O)(=O)c4cc(NS(C)(=O)=O)ccc4N3)=C(O)[C@@H]3[C@H]4CC[C@H](C4)[C@@H]32)c1,"remaining at 1 h, 1 µM (in vitro [3]; liver microsomes): 61%"
0.07,> 60,CS(=O)(=O)Nc1ccc2c(c1)S(=O)(=O)N=C(C1=C(O)[C@@H]3[C@H]4CC[C@H](C4)[C@@H]3N(Cc3ccccc3F)C1=O)N2,"remaining at 1 h, 1 µM (in vitro [3]; liver microsomes): 89%"
0.063,15,CS(=O)(=O)Nc1ccc2c(c1)S(=O)(=O)N=C(C1=C(O)[C@@H]3[C@@H]4CC[C@@H](C4)[C@@H]3N(CC3CCCCC3)C1=O)N2,–
0.063,> 60,CS(=O)(=O)Nc1ccc2c(c1)S(=O)(=O)N=C(C1=C(O)[C@@H]3[C@@H]4CC[C@@H](C4)[C@@H]3N(Cc3ccccc3F)C1=O)N2,"remaining at 1 h, 1 µM (in vitro [3]; liver microsomes): 83%"
0.062,> 60,COc1cccc(CN2C(=O)C(C3=NS(=O)(=O)c4cc(NS(C)(=O)=O)ccc4N3)=C(O)[C@@H]3[C@@H]4CC[C@@H](C4)[C@@H]32)c1,"remaining at 1 h, 1 µM (in vitro [3]; liver microsomes): 83%"
0.059,–,COc1cc(CN2C(=O)C(C3=NS(=O)(=O)c4cc(NS(C)(=O)=O)ccc4N3)=C(O)[C@@H]3[C@@H]4CC[C@@H](C4)[C@@H]32)ccc1F,"half-life at 1 µM (in vitro [2]; microsomes): > 60 min; remaining at 1 h, 1 µM (in vitro [3]; microsomes): 64%"
0.055,–,CS(=O)(=O)Nc1ccc2c(c1)S(=O)(=O)N=C(C1=C(O)[C@@H]3[C@@H]4CC[C@@H](C4)[C@@H]3N(Cc3ccc(F)cc3F)C1=O)N2,"half-life at 1 µM (in vitro [2]; microsomes): > 60 min; remaining at 1 h, 1 µM (in vitro [3]; microsomes): 100%"
0.05,–,CC(C)(C)CCN1C(=O)C(C2=NS(=O)(=O)c3cc(NS(C)(=O)=O)ccc3N2)=C(O)[C@@H]2[C@@H]3CC[C@@H](C3)[C@@H]21,half-life at 1 µM (in vitro [2]; microsomes): 3 min
0.046,> 60,CS(=O)(=O)Nc1ccc2c(c1)S(=O)(=O)N=C(C1=C(O)[C@@H]3[C@@H]4CC[C@@H](C4)[C@@H]3N(Cc3ccc(F)c(F)c3F)C1=O)N2,"remaining at 1 h, 1 µM (in vitro [3]; liver microsomes): 87%"
0.029,> 60,CS(=O)(=O)Nc1ccc2c(c1)S(=O)(=O)N=C(C1=C(O)[C@@H]3[C@H]4CC[C@H](C4)[C@@H]3N(Cc3ccccc3)C1=O)N2,"remaining at 1 h, 1 µM (in vitro [3]; liver microsomes): 80%"
0.029,59,CC(C)CCN1C(=O)C(C2=NS(=O)(=O)c3cc(NS(C)(=O)=O)ccc3N2)=C(O)[C@@H]2C3CCC(CC3)[C@@H]21,–
0.026,> 60,CS(=O)(=O)Nc1ccc2c(c1)S(=O)(=O)N=C(C1=C(O)[C@@H]3C4CCC(CC4)[C@@H]3N(Cc3ccccc3F)C1=O)N2,"remaining at 1 h, 1 µM (in vitro [3]; liver microsomes): 81%"
0.024,47,CS(=O)(=O)Nc1ccc2c(c1)S(=O)(=O)N=C(C1=C(O)[C@@H]3C4CCC(CC4)[C@@H]3N(CC3CCCC3)C1=O)N2,–
0.022,44,CS(=O)(=O)Nc1ccc2c(c1)S(=O)(=O)N=C(C1=C(O)[C@@H]3[C@H]4CC[C@H](C4)[C@@H]3N(CC3CCCCC3)C1=O)N2,–
0.02,–,CC(C)(C)CCN1C(=O)C(C2=NS(=O)(=O)c3cc(NS(C)(=O)=O)ccc3N2)=C(O)[C@@H]2[C@H]3CC[C@H](C3)[C@@H]21,EC50 (Hepatitis C virus [4]): 0.18 µM; half-life at 1 µM (in vitro [2]; microsomes): 4 min
0.012,37,CC(C)CCN1C(=O)C(C2=NS(=O)(=O)c3cc(NS(C)(=O)=O)ccc3N2)=C(O)[C@@H]2[C@H]3CC[C@H](C3)[C@@H]21,EC50 (Hepatitis C virus [4]): 0.072 µM
